Test results from ChEMBL document CHEMBL1799994, “Synthesis and docking studies on styryl chromones exhibiting cytotoxicity in human breast cancer cell line” (Bioorg Med Chem Lett, 2010).

Assays:
[1] = system: MCF7; experiment: Antiproliferative activity against human MCF7 cells expressing estrogen receptor after 24 hrs by MTT assay; format: functional, cell-based
[2] = system: MCF7; experiment: Cytotoxicity against human MCF7 cells expressing estrogen receptor after 24 hrs by MTT assay; format: functional, cell-based

SMILES: CC(=O)OC1=C(/C=C/c2ccccc2)Oc2ccccc2C1=C(C#N)C#N
- Activity [1]: Dose-dependent effect
- Activity [2]: Dose-dependent effect
